The record followed here is patent publication US12180252B2, “Peptide derived from PEP27 peptide and uses thereof” (priority 2021, dated 2024).

One series relates to B. subtilis KCTC1998. Type of series: cell-based, Bacillus subtilis. As for the experimental part:
(§1) In order to evaluate the antimicrobial activity of the peptides prepared by the method of above 1, a minimal inhibitory concentration (MIC) value as the minimum concentration of a peptide, in which cells are not divided, was measured.
(§2) Specifically, the strains shown in Table 3 below were purchased, cultured in a medium having a constitutional composition suitable for each strain to a mid-log phase, and then diluted to a concentration of 2×10^4 cells/100 μl to prepare the product on a micro-titration plate (Nunc, USA). Then, PEP27, PEP27-1, PEP27-2 or PEP27-5 peptide synthesized in the above 1 was added to each well by serial dilution ½ times, followed by incubation at 37° C. for 18 hours.

Series [1] deals with P. aeruginosa 4007. In words: microbe, parasite or virus in culture. An outline of the steps: (§3)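 Peptide growth inhibition measured by twofold dilution against mid-log bacteria (2×10^4 cells/100 μl), 37° C, 18 hours; endpoint was absence of cell division. Meropenem, ceftazidime, ceftriaxone and vancomycin were run in parallel.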
In series [2] the test system is P. aeruginosa 4891. Nature of the series: microbe, parasite or virus in culture. An outline of the steps:
as §3

A further series has as its system P. aeruginosa ATCC15692. In words: microbe, parasite or virus in culture. An outline of the steps: as §3
The test system of the next series is S. aureus CCARM3089. In words: microbe, parasite or virus in culture. The conditions noted are these: S. aureus CCARM3089, antibiotics-tolerant; 37° C., 18 hours. An outline of the steps:
as §3

The next series relates to S. aureus CCARM3090. In words: microbe, parasite or virus in culture. To be noted: S. aureus CCARM3090, antibiotics-tolerant; 37° C., 18 hours. An outline of the steps: as §3
The next series concerns S. aureus CCARM3518. Nature of the series: microbe, parasite or virus in culture. To be noted: S. aureus CCARM3518, antibiotics-tolerant; 37° C., 18 hours. An outline of the steps: as §3
Series [3] has as its system Sa. typhimurium CCARM8007. Format: cell-based, Salmonella typhimurium. To be noted: Sa. typhimurium CCARM8007, antibiotics-tolerant; 37° C., 18 hours. As for the experimental part:
as §1, §2

For series [4], the system named is Sa. typhimurium CCARM8009. Format: cell-based, Salmonella typhimurium. The conditions noted are these: Sa. typhimurium CCARM8009, antibiotics-tolerant; 37° C., 18 hours. As for the experimental part:
as §1, §2

Another series deals with Sa. typhimurium KCTC1926. Type of series: cell-based, Salmonella typhimurium. As for the experimental part: as §1, §2
For series [5], the system named is red blood cells of a rat (Balb/c). To be noted: 37° C., 1 hour. As for the experimental part: In order to compare the cytotoxicity of the peptides prepared by the method of above 1, erythrocyte hemolytic activity of each of the synthesized peptides was measured.
Specifically, red blood cells of a rat (Balb/c, 6 weeks old, female) were diluted with PBS (pH 7.0) to a concentration of 8%, and PEP27, PEP27-1, PEP27-2 and PEP27-5 peptides were used for treatment of the cells at concentrations of 3.13, 6.25, 12.5, 25.01 50.0 and 100.0 μM/well, respectively, followed by reaction at 37° C. for 1 hour. Then, an amount of hemoglobin contained in the supernatant obtained by centrifugation at 1,000×g was determined by measuring the absorbance at a wavelength of 414 nm. As a control which is a standard for the degree of cell destruction, the absorbance of the obtained supernatant was measured after treatment using 1% Triton X-100 (Sigma, USA) and reaction at 37° C. for 1 hour. With reference to 100% erythrocytes hemolysis activity, hemolysis of each peptide was calculated from the measured absorbance using Equation 1 below. Erythrocyte destruction ability (%)=(Absorbance A−Absorbance B)/(Absorbance C−Absorbance B)×100 [Equation 1]
(wherein, absorbance A represents the absorbance of a reaction solution treated with each peptide measured at a wavelength of 414 nm; absorbance B represents the absorbance of a reaction solution treated with PBS measured at a wavelength of 414 nm; and absorbance C represents the absorbance of a reaction solution treated with 1% Triton X-100 measured at a wavelength of 414 nm).

Series [6] has as its system P. aeruginosa 4891. Type of series: cell-based, Pseudomonas aeruginosa. An excerpt:
(§4) Biofilms may form on a wide variety of surfaces, including living or dead surfaces, and biofilm-associated bacteria are more tolerant to antibiotics than planktonic bacterial cells, making them antibiotic-resistant. To assess the efficacy of PEP27-2 against biofilms, we observed the anti-biofilm activity of PEP27-2 in S. aureus (ATCC 25923 and CCARM 3090), E. coli (ATCC 25922 and CCARM 1238), and P. aeruginosa (ATCC 27853 and 4891).
(§5) Specifically, among the strains listed in Table 3 above, Staphylococcus aureus, E. coli and Pseudomonas erujinosa, respectively, were cultured in each medium to a mid-log phase, diluted to a cell concentration of 5×10^4 cells/100 μl, and then, inoculated into a micro-plate (SPL). Then, PEP27-2 peptide was diluted 1/10 times with 10 mM PBS solution (pH 7.2) and 10 μl of the solution was added to each well, followed by incubation at 37° C. for 24 hours. After completely removing the supernatant, the solution was fixed with 100% methanol for 15 minutes, stained with a crystal violet dye solution for 1 hour, washed 3 times, and then dissolved in 95% ethanol, followed by measuring the absorbance at a wavelength of 595 nm using a micro titration plate reader, thereby determining a biofilm minimal inhibitory concentration value for each strain.

The next series concerns P. aeruginosa ATCC27853. Format: cell-based, Pseudomonas aeruginosa.
Source text: as §4, §5

In series [7] the test system is P. aeruginosa 4007. Type of series: cell-based, Pseudomonas aeruginosa.
Where [8] appears, read: Peptide concentration 100 μM, 100% = 1% Triton X-100.

Structures are written as SMILES. Values after ≈ are worked out from the molar mass of the structure shown. Values joined by “and” are separate entries in the source; they are usually repeats but may differ in a detail not shown here. Equal entries are not always repeated. Where two headings read alike, the source gives them in different places. Where a SMILES comes first, the peptide text is derived from it.

With `CC[C@H](C)[C@H](NC(=O)CN)C(=O)NCC(=O)N[C@@H](C)C(=O)N[C@H](C(=O)N[C@@H](CC(C)C)C(=O)N[C@@H](CCCCN)C(=O)N[C@H](C(=O)N[C@@H](CC(C)C)C(=O)N[C@H](C(=O)N[C@H](C(=O)NCC(=O)N[C@@H](CC(C)C)C(=O)N1CCC[C@H]1C(=O)N[C@@H](C)C(=O)N[C@@H](CC(C)C)C(=O)N[C@H](C(=O)N[C@@H](CO)C(=O)N[C@@H](Cc1c[nH]c2ccccc12)C(=O)N[C@H](C(=O)N[C@@H](CCCCN)C(=O)N[C@@H](CCCNC(=N)N)C(=O)N[C@@H](CCCCN)C(=O)N[C@@H](CCCNC(=N)N)C(=O)N[C@@H](CCC(N)=O)C(=O)N[C@@H](CCC(N)=O)C(N)=O)[C@@H](C)CC)[C@@H](C)CC)[C@@H](C)O)[C@@H](C)O)C(C)C)C(C)C` [Melittin, reference compound], the Minimal inhibitory concentration with B. subtilis KCTC1998 (B. subtilis KCTC1998, Gram-positive, 37° C., 18 hours) worked out at 4 µM (≈ 11.4 µg/mL); in the series on P. aeruginosa 4007 [1] (P. aeruginosa 4007, antibiotics-tolerant, 37° C., 18 hours), 2 µM (≈ 5.69 µg/mL); in the series with P. aeruginosa 4891 [2] (P. aeruginosa 4891, antibiotics-tolerant, 37° C., 18 hours) it was 2 µM (≈ 5.69 µg/mL); in the series with P. aeruginosa ATCC15692 (P. aeruginosa ATCC15692, Gram-negative, 37° C., 18 hours), 2 µM (≈ 5.69 µg/mL); in the series with S. aureus CCARM3089, 2 µM (≈ 5.69 µg/mL); in the series with S. aureus CCARM3090 it was 4 µM (≈ 11.4 µg/mL). Also, the Minimal inhibitory concentration amounted to 2 µM (≈ 5.69 µg/mL) in the series with S. aureus CCARM3518; 4 µM (≈ 11.4 µg/mL) in [3]; 4 µM (≈ 11.4 µg/mL) in [4]; 4 µM (≈ 11.4 µg/mL) with Sa. typhimurium KCTC1926 (Sa. typhimurium KCTC1926, Gram-negative, 37° C., 18 hours). Besides, the Erythrocyte destruction ability in [5] (Peptide concentration 3.13 μM) is 27.33%; in [5] (Peptide concentration 6.25 μM), 49.41%; in [5] (Peptide concentration 12.5 μM), 69.75%; in series [5] (Peptide concentration 25 μM) it was 83.99%; in series [5] (Peptide concentration 50 μM), 97.76%; in series [5] (setting [8]), 99.17%. Further, the “Biofilm minimal inhibitory concentration” value in the series with P. aeruginosa 4891 [6] (P. aeruginosa 4891, 37° C., 24 hours) turned out to be 8 µM; in the series on P. aeruginosa ATCC27853 (P. aeruginosa ATCC27853, 37° C., 24 hours) it was 4 µM; in the series with P. aeruginosa 4007 [7] (P. aeruginosa 4007, 37° C., 24 hours), 4 µM.

For the compound `CSCC[C@H](N)C(=O)N[C@@H](Cc1c[nH]c2ccccc12)C(=O)N[C@@H](CCCCN)C(=O)N[C@@H](Cc1c[nH]c2ccccc12)C(=O)N[C@@H](Cc1ccccc1)C(=O)N[C@@H](Cc1c[nH]cn1)C(=O)N[C@@H](CC(N)=O)C(=O)N[C@H](C(=O)N[C@@H](CC(C)C)C(=O)N[C@@H](CO)C(=O)N[C@@H](Cc1c[nH]c2ccccc12)C(=O)NCC(=O)N[C@@H](Cc1c[nH]c2ccccc12)C(=O)N[C@@H](CC(C)C)C(=O)N[C@@H](CC(C)C)C(=O)N[C@@H](C)C(=O)N[C@@H](CC(=O)O)C(=O)N[C@@H](CCCCN)C(=O)N[C@@H](CCCNC(=N)N)C(=O)N1CCC[C@H]1C(=O)N[C@@H](C)C(=O)N[C@@H](CCCNC(=N)N)C(=O)N[C@@H](CC(=O)O)C(=O)N[C@@H](Cc1ccc(O)cc1)C(=O)N[C@@H](CC(N)=O)C(=O)N[C@@H](CCCNC(=N)N)C(=O)N[C@@H](CCCCN)C(N)=O)C(C)C` [PEP27-2] (H-MWKWFHNVLSWGWLLADKRPARDYNRK-NH2), the Minimal inhibitory concentration was 4 µM (≈ 13.9 µg/mL) in the series with B. subtilis KCTC1998 (KCTC1998, 18 h); 4 µM (≈ 13.9 µg/mL) with P. aeruginosa 4007 [1] (4007, 18 h); 4 µM (≈ 13.9 µg/mL) in the series with P. aeruginosa 4891 [2] (4891, 18 h); 4 µM (≈ 13.9 µg/mL) with P. aeruginosa ATCC15692 (ATCC15692, 18 h); 4 µM (≈ 13.9 µg/mL) with S. aureus CCARM3089; 4 µM (≈ 13.9 µg/mL) in the series on S. aureus CCARM3090. In addition, the Minimal inhibitory concentration with S. aureus CCARM3518 was 4 µM (≈ 13.9 µg/mL); in series [3] it was 4 µM (≈ 13.9 µg/mL); in series [4], 4 µM (≈ 13.9 µg/mL); in the series on Sa. typhimurium KCTC1926 (KCTC1926, 18 h), 8 µM (≈ 27.8 µg/mL). Besides, the Erythrocyte destruction ability in series [5] (Peptide concentration 3.13 μM) was 0%; in [5] (Peptide concentration 6.25 μM) it was 2.30%; in series [5] (Peptide concentration 12.5 μM) it was 14.96%; in series [5] (Peptide concentration 25 μM), 40.51%; in series [5] (Peptide concentration 50 μM) it was 62.47%; in series [5] (setting [8]), 75.8% and 75.84%. In addition, the “Biofilm minimal inhibitory concentration” value turned out to be 8 µM in the series with P. aeruginosa 4891 [6] (4891, 24 h); 8 µM in the series on P. aeruginosa ATCC27853 (ATCC27853, 24 h); 8 µM in the series on P. aeruginosa 4007 [7] (4007, 24 h). For the same compound, in the series with P. aeruginosa ATCC27853 (ATCC27853), the “maximum percent biofilm inhibition” value is given as 81.2%.
